Data: patent publication US20100168038A1, “USE OF COMPOUNDS IN COMBINATION WITH GAMMA-IRRADIATION FOR THE TREATMENT OF CANCER” (priority 2006, published 2010)
Values joined by “and” are separate entries in the source; they are usually repeats but may differ in a detail not shown here. Equal entries are not always repeated. Residues, ends and D or L forms follow the SMILES beside them.

System: EL-4 lymphoma cells
Assay: Tumor growth of EL-4 lymphoma in C57Bl/6 mice, compound with gamma-irradiation
Format: in vivo, mouse
Conditions: for tumor volume: single mouse; for tumor volume, mean: group mean
Text: Tumor Growth Experiments. Tumor cells were washed in PBS and resuspended in a volume of 200 micro-l per inoculate. The cells were then inoculated into the right flank at 10^6 per mouse and growth of the tumor was monitored by measurement two times per week. The initiation of anti-tumor treatment of the mice was to some extent individualized according to when tumor growth started in each mouse. The mice were irradiated with 4 Gy prior to tumor inoculation in order to inhibit anti-tumor immune responses. The tumor volume was calculated as the mean volume in mice with tumors growth, according to (a1×a2×a3)/2 (the numbers ai denote tumor diameter, width and depth). The time of first palpation varied between different mice, although the general pattern of growth was similar in virtually all of the mice. In most diagrams a log-scale is used to better visualize the therapeutic effects against small tumors, i.e. the presence of complete rejections. For inhibition of TPPII in vivo we made intraperitoneal injections with 13.8 mg per kg of body weight (14 micro-l of a 50 mM solution/mouse) of the Subtilisin inhibitor Z-Gly-Leu-Ala-OH (Z-GLA-OH, Bachem, Weil am Rhein, Germany) twice per week, diluted into 200 micro-l PBS. All gamma-irradiations were full body exposures.
Table 3 contains further in vivo data, showing tumor volume in mm^3, in groups of 7-8 mice, according to the EL-4 tumor model described above. 1.000.000 EL-4 lymphoma cells were inoculated subcutaneously at day 0. No palpable tumors were observed until day 22. At each treatment (twice weekly) mice with palpable tumors were given 400 Rads irradiation alone, or in combination with 14 micro-l 50 mM solution of Z-GLA-OH. Mice with no palpable tumors were not treated, i.e. in mice with rejected tumors, treatment was terminated and the mice were kept under observation.
All mice were 400 Rad (1 Gy=100 Rad) gamma-irradiated at day 0, a standard procedure to improve tumor acceptance. The compound was inoculated intraperitoneally, whereas tumors were always inoculated subcutaneously.

[1] = EL-4, irradiation + Z-GLA-OH, day 26
[2] = EL-4, irradiation + Z-GLA-OH, day 30
[3] = EL-4, irradiation + Z-GLA-OH, day 34
[4] = EL-4, irradiation + Z-GLA-OH, day 37
[5] = EL-4, irradiation + Z-GLA-OH, day 41
[6] = EL-4, irradiation + Z-GLA-OH, day 44
[7] = EL-4, irradiation + Z-GLA-OH, day 48
[8] = EL-4, irradiation + Z-GLA-OH, day 55
[9] = EL-4, irradiation + Z-GLA-OH, day 62
[10] = EL-4, irradiation + Z-GLA-OH, day 65
[11] = EL-4, irradiation + Z-GLA-OH, day 72
[12] = EL-4, irradiation + Z-GLA-OH, day 78

SMILES: CC(C)C[C@H](NC(=O)CNC(=O)OCc1ccccc1)C(=O)N[C@@H](C)C(=O)O [Z-GLA-OH, Z-Gly-Leu-Ala-OH] (HELM PEPTIDE1{[O=C(OCc1ccccc1)[*:2]].G.L.A}$$$$V2.0)
- period of observation without re-growth of tumors after treatment was cancelled (EL-4, after 4 Gy + Z-GLA-OH 13.8 mg/kg): over 3 months
- tumor volume (EL-4, irradiation 400 Rads + Z-GLA-OH 14 micro-l 50 mM i.p., day 22): 6.00 mm^3 and 0.50 mm^3 (5×) and 4.00 mm^3
- tumor volume, mean (EL-4, irradiation + Z-GLA-OH, day 22): 2.06 mm^3
- tumor volume, mean [1]: 84.69 mm^3
- tumor volume [1]: 108.00 mm^3 (3×) and 126.00 mm^3 and 75.00 mm^3 and 50.00 mm^3 and 40.00 mm^3 and 62.50 mm^3
- tumor volume, mean [2]: 49.94 mm^3
- tumor volume [2]: 108.00 mm^3 (2×) and 13.50 mm^3 and 18.00 mm^3 and 24.00 mm^3 and 32.00 mm^3 and 48.00 mm^3 (2×)
- tumor volume, mean [3]: 20.75 mm^3
- tumor volume [3]: 10.00 mm^3 and 0.50 mm^3 and 62.50 mm^3 and 24.00 mm^3 (2×) and 13.50 mm^3 (2×) and 18.00 mm^3
- tumor volume, mean [4]: 12.69 mm^3
- tumor volume [4]: 8.00 mm^3 and 18.00 mm^3 and 12.00 mm^3 and 6.00 mm^3 (2×) and 27.00 mm^3 and 24.00 mm^3 and 0.50 mm^3
- tumor volume, mean [5]: 3.88 mm^3
- tumor volume [5]: 0.50 mm^3 (3×) and 4.00 mm^3 (4×) and 13.50 mm^3
- tumor volume, mean [6]: 1.14 mm^3
- tumor volume [6]: 0.50 mm^3 (4×) and 0.10 mm^3 and 2.00 mm^3 and 1.00 mm^3 and 4.00 mm^3
- tumor volume, mean [7]: 0.18 mm^3
- tumor volume [7]: 0.10 mm^3 (4×) and 0.50 mm^3 (2×) and 0.00 mm^3 (2×)
- tumor volume, mean [8]: 0.07 mm^3
- tumor volume [8]: 0.00 mm^3 (6×) and 0.10 mm^3 and 0.50 mm^3
- tumor volume, mean [9]: 0.01 mm^3
- tumor volume [9]: 0.10 mm^3 and 0.00 mm^3 (7×)
- tumor volume, mean [10]: 0.01 mm^3
- tumor volume [10]: 0.00 mm^3
- tumor volume, mean [11]: 0.01 mm^3
- tumor volume [11]: 0.10 mm^3 and 0.00 mm^3 (7×)
- tumor volume, mean [12]: 0.00 mm^3
- tumor volume [12]: 0.00 mm^3
- tumor response, summary of Table 3 (EL-4, 400 Rads irradiation + 14 micro-l 50 mM Z-GLA-OH at each treatment (twice weekly)): complete rejection of established tumors
- mice with tumor regression (partial effects) (EL-4, Z-GLA-OH 3.5 mg/kg and lower doses + 3 Gy gamma-irradiation doses): 2 out of 4
- mice with complete tumor rejection (EL-4, Z-GLA-OH 6.9 mg/kg + 3 Gy gamma-irradiation doses): 3 out of 4
- mice with complete rejection (EL-4, gamma-irradiation doses of 1 Gy + Z-GLA-OH injection): 1 out of 4
- mice with complete rejection (EL-4, gamma-irradiation doses of 2 Gy + Z-GLA-OH injection): 2 out of 5
- tumor response (EL-4, gamma-irradiation doses of 3 Gy + Z-GLA-OH injection): complete regression
- tumor response (established EL-4 tumors, C57Bl/6 mice, 3-4 doses of 400 Rad (one dose/week) + Z-GLA-OH 13.8 mg/kg twice weekly, all mice tested): complete tumor regression
